The values below come from publication PMC11684019, “Unveiling the Antimycobacterial Potential of Novel 4-Alkoxyquinolines: Insights into Selectivity, Mechanism of Action, and In Vivo Exposure” (Journal of Medicinal Chemistry, 2024).

≈ marks a conversion by molar mass, not a printed value. Where two headings read alike, the source gives them in different places.

The subject of data set [1] is M. tuberculosis H37Rv strain. Put plainly: microbe, parasite or virus in culture. The format is cell-based, Mycobacterium tuberculosis.
Data set [2] deals with M. tuberculosis H37Rv strain in murine macrophage RAW 264.7 cells. The format is cell-based, Mycobacterium tuberculosis.
For data set [3], the system named is M. tuberculosis strain PT20 (MDR clinical isolate). Type of data set: cell-based, Mycobacterium tuberculosis.
Data set [4] concerns M. tuberculosis strain PT2 (MDR clinical isolate). The format is cell-based, Mycobacterium tuberculosis.
The subject of data set [5] is M. tuberculosis strain PT12 (MDR clinical isolate). Type of data set: cell-based, Mycobacterium tuberculosis.
The subject of data set [6] is Vero cells. To be noted: read-out: CC50 Vero; MTT method, 72 h. (Formazan colour is commonly taken as a measure of viable cells.)
In data set [7] the test system is HepG2 cells. Particulars: read-out: CC50 HepG2; Neutral Red method, 72 h.
In data set [8] the test system is Vero cells. Particulars: read-out: CC50 Vero; Neutral Red method, 72 h.
The subject of data set [9] is HepG2 cells. To be noted: read-out: CC50 HepG2; MTT method, 72 h.
Data set [10] can be described thus: Aqueous solubility (UHPLC-DAD). To be noted: 25 °C, 4 h; for Solubility pH 1.2: 0.1 M HCl solution; for Solubility pH 9.1: 0.1 M NH4HCO3 solution; for Solubility pH 7.4: PBS.
The next data set deals with Mtb. Particulars: cited from earlier work.
A further data set can be described thus: in vitro. Particulars: PAMPA, pH 7.4. A general note: PAMPA measures passive passage across an artificial lipid membrane.
The mark [11] stands for this setting: M. tuberculosis H37Rv, resazurin-based assay.

Take `Cc1cc(OCCCNc2ccc(Br)cc2)c2cc(Br)ccc2n1` [8s, 4-Bromo-N-(3-((6-bromo-2-methylquinolin-4-yl)oxy)propyl)aniline]: the MIC in [1] (setting [11]) turned out to be 0.35 µM (≈ 0.158 µg/mL).
`CCc1ccc(NCCCOc2cc(CC)nc3ccc(Cl)cc23)cc1` [8q, N-(3-((6-chloro-2-ethylquinolin-4-yl)oxy)propyl)-4-ethylaniline]: in data set [1] (setting [11]), the MIC turned out to be 0.22 µM (≈ 0.0812 µg/mL).
The same measure, in the same setting: the figure for `CCc1cc(OCCCNc2ccc(Cl)cc2)c2cc(Cl)ccc2n1` [8o, 4-Chloro-N-(3-((6-chloro-2-ethylquinolin-4-yl)oxy)propyl)aniline] is 0.11 µM (≈ 0.0413 µg/mL).
Take `NNC(=O)c1ccncc1` [INH, isoniazid, reference compound]: the “Kind of effect on intracellular growth of M. tuberculosis H37Rv” value in [2] was “bactericidal effect”. Also, the “Log10 CFU/well (Mean ± SD)” value is on record as 2.25 ± 0.15 ^c^, ^d Log10 CFU/well in data set [2] and 2.25 in data set [2] (listed as isoniazid). In addition, the MIC in [1] (Mycobacterium tuberculosis, H37RV) was found to be 2.3 µM (≈ 0.315 µg/mL).
Turning to “N-(3-((6-bromo-2-ethylquinolin-4-yl)oxy)propyl)-4-ethylaniline [8w]”, the “MIC PT20” value in [3] was below 0.05 µM. The “MIC PT2” value in data set [4] is below 0.05 µM. For the same molecule, the “MIC PT12” value in [5] was below 0.05 µM. For the same molecule, the CC50 is above 20 µM in the data set on Vero cells [6], 8.3 µM with HepG2 cells [7], 9.1 µM in the data set with Vero cells [8] and above 20 µM in the data set with HepG2 cells [9]. This molecule also displayed an MIC in [1] (setting [11]) of 0.10 µM.
As to “N-(3-((6-Chloro-2-methylquinolin-4-yl)oxy)propyl)-4-ethylaniline [8n]”, the “MIC PT20” value in data set [3] was below 0.06 µM. The “MIC PT2” value in [4] was below 0.06 µM. Also, the “MIC PT12” value in data set [5] was below 0.06 µM. In data set [10], the “Solubility pH 1.2” value worked out at 200 μM, the “Solubility pH 9.1” value came out at 0.37 μM and the “Solubility pH 7.4” value came to 0.06 μM. For the same molecule, the MIC in data set [1] (setting [11]) is recorded as 0.03 µM.
`COc1ccc2nc(C)cc(OCCCNc3ccc(OC(F)(F)F)cc3)c2c1` [8g, N-(3-((6-methoxy-2-methylquinolin-4-yl)oxy)propyl)-4-(trifluoromethoxy)aniline]: the MIC in [1] (setting [11]) is recorded as 0.20 µM (≈ 0.0813 µg/mL).
Take `CCc1cc(OCCCNc2ccc(Cl)cc2)c2cc(Br)ccc2n1` [8u, N-(3-((6-bromo-2-ethylquinolin-4-yl)oxy)propyl)-4-chloroaniline]: the MIC in [1] (setting [11]) is 0.19 µM (≈ 0.0798 µg/mL).
The molecule `COc1ccc2nc(C)cc(OCCCNc3ccc(Cl)cc3)c2c1` [8c, 4-Chloro-N-(3-((6-methoxy-2-methylquinolin-4-yl)oxy)propyl)aniline] gave an MIC in data set [1] (setting [11]) of 0.22 µM (≈ 0.0785 µg/mL).
As for “4-Iodo-N-(3-((6-methoxy-2-methylquinolin-4-yl)oxy)propyl)aniline [8e]”, the “MIC PT20” value in data set [3] was below 0.05 µM. In data set [4], the “MIC PT2” value was below 0.05 µM. Further, the “MIC PT12” value in [5] was below 0.05 µM. Also, the CC50 worked out at 8.2 µM with Vero cells [6], 12.8 µM in the data set with HepG2 cells [7], 7.5 µM in the data set with Vero cells [8] and 10.6 µM in the data set with HepG2 cells [9]. In [1] (setting [11]), this molecule yielded an MIC of 0.09 µM.
Take `Cc1cc(OCCCNc2ccc(OC(F)(F)F)cc2)c2cc(Cl)ccc2n1` [8m, N-(3-((6-Chloro-2-methylquinolin-4-yl)oxy)propyl)-4-(trifluoromethoxy)aniline]: the MIC in data set [1] (setting [11]) is 0.19 µM (≈ 0.0781 µg/mL).
On to “4-Ethyl-N-(3-((6-methoxy-2-methylquinolin-4-yl)oxy)propyl)aniline [8i]”, for which the “MIC PT20” value in data set [3] was below 0.06 µM. The “MIC PT2” value in data set [4] is below 0.06 µM. In addition, the “MIC PT12” value in data set [5] is below 0.06 µM. Also, the CC50 in the data set with Vero cells [6] is below 1 µM; in the data set with HepG2 cells [7], 8.1 µM; in the data set with Vero cells [8], 4.2 µM; in the data set with HepG2 cells [9] it was 0.3 µM. For the same molecule, in data set [1] (setting [11]), the MIC amounted to 0.06 µM.
Consider `CCc1nc2ccc(Cl)cn2c1C(=O)NCc1ccc(N2CCC(c3ccc(OC(F)(F)F)cc3)CC2)cc1` [Q203, telacebec, reference compound], for which the MIC in [1] (Mycobacterium tuberculosis, M. tuberculosis H37Rv, resazurin-based assay) was found to be 0.009 µM (≈ 0.00501 µg/mL).
As for `COc1ccc2nc(C)cc(OCC(=O)Nc3ccccc3OC)c2c1` [compound 1], the “MIC (Mtb)” value with Mtb is 0.44 µM (≈ 0.155 µg/mL).
Take `Cc1cc(OCCCNc2ccc(Cl)cc2)c2cc(Br)ccc2n1` [8r, N-(3-((6-bromo-2-methylquinolin-4-yl)oxy)propyl)-4-chloroaniline]: the “MIC PT20” value in data set [3] is below 0.05 µM. Further, the “MIC PT2” value in data set [4] is below 0.05 µM. Besides, in data set [5], the “MIC PT12” value is below 0.05 µM. In addition, the CC50 in the data set on Vero cells [6] was 19.8 µM; in the data set on HepG2 cells [7], above 20 µM; in the data set on Vero cells [8] it was 11.2 µM; in the data set with HepG2 cells [9] it was above 20 µM. In data set [10], the “Solubility pH 1.2” value is >2,470 μM. In addition, the “Solubility pH 9.1” value in data set [10] was 57.18 μM. Further, the “Solubility pH 7.4” value in data set [10] is listed as 15.0 μM. In data set [1] (setting [11]), the MIC came to 0.10 µM (≈ 0.0406 µg/mL).
For `COc1ccc2nc(C)cc(OCCCNc3ccc(C)cc3)c2c1` [8h, N-(3-((6-methoxy-2-methylquinolin-4-yl)oxy)propyl)-4-methylaniline], in data set [1] (setting [11]), the MIC came out at 0.24 µM (≈ 0.0807 µg/mL).
For the molecule `Cc1cc(OCCCNc2ccc(Cl)cc2)c2cc(Cl)ccc2n1` [8k, 4-Chloro-N-(3-((6-chloro-2-methylquinolin-4-yl)oxy)propyl)aniline], in data set [1] (setting [11]), the MIC was 0.22 µM (≈ 0.0795 µg/mL).
“4-Bromo-N-(3-((6-methoxy-2-methylquinolin-4-yl)oxy)propyl)aniline [8d]”: in data set [3], the “MIC PT20” value was below 0.05 µM. For the same molecule, the “MIC PT2” value in data set [4] is below 0.05 µM. Moreover, the “MIC PT12” value in [5] was below 0.05 µM. Besides, the CC50 with Vero cells [6] is above 20 µM; with HepG2 cells [7], 16.8 µM; in the data set on Vero cells [8], 12.8 µM; with HepG2 cells [9], 15.3 µM. Further, the MIC in data set [1] (setting [11]) is reported as 0.10 µM.
With `COc1ccc2nc(C)cc(OCCCNc3ccc(F)cc3)c2c1` [8b, 4-Fluoro-N-(3-((6-methoxy-2-methylquinolin-4-yl)oxy)propyl)aniline], in [1] (setting [11]), the MIC was 0.47 µM (≈ 0.16 µg/mL).
For the molecule `CCc1cc(OCCCNc2ccc(Br)cc2)c2cc(Br)ccc2n1` [8v, 4-Bromo-N-(3-((6-bromo-2-ethylquinolin-4-yl)oxy)propyl)aniline], the MIC in data set [1] (setting [11]) was 0.34 µM (≈ 0.158 µg/mL).
Consider `COc1ccc2nc(C)cc(OCC(=O)c3cccc(Cl)c3)c2c1` [compound 5], for which the “MIC (Mtb)” value with Mtb is 1.8 µM (≈ 0.615 µg/mL).
With `COc1ccc2nc(C)cc(OCCCNc3ccccc3)c2c1` [8a, N-(3-((6-methoxy-2-methylquinolin-4-yl)oxy)propyl)aniline], the MIC in data set [1] (setting [11]) was 0.25 µM (≈ 0.0806 µg/mL).
Same read-out and setting: under `CCc1cc(OCCCNc2ccc(Br)cc2)c2cc(Cl)ccc2n1` [8p, 4-Bromo-N-(3-((6-chloro-2-ethylquinolin-4-yl)oxy)propyl)aniline] stands 0.38 µM (≈ 0.16 µg/mL).
On to `COc1ccc2nc(C)cc(OCC(=O)Nc3ccc4ccccc4c3)c2c1` [compound 2], for which the “MIC (Mtb)” value in the data set with Mtb was 0.05 µM (≈ 0.0186 µg/mL).
Turning to `COc1ccc2nc(C)cc(OCCCNc3ccc(C(F)(F)F)cc3)c2c1` [8f, N-(3-((6-methoxy-2-methylquinolin-4-yl)oxy)propyl)-4-(trifluoromethyl)aniline], in data set [1] (setting [11]), the MIC is 3.20 µM (≈ 1.25 µg/mL).
Regarding `C=CCc1ccccc1OCC(O)CNC(C)C` (stereo not shown) [alprenolol], the Papp at 5 h, 10 µM in the data set “in vitro” was determined as 4.1 ×10⁻⁶ cm/s.
Consider `CCCc1ccc(NC(=O)COc2cc(C)nc3ccc(OC)cc23)cc1` [compound 3], for which the “MIC (Mtb)” value in the data set on Mtb was 0.05 µM (≈ 0.0182 µg/mL).
For `COc1ccc2nc(C)cc(OCc3ccc(Cl)c(Cl)c3)c2c1` [compound 4], the “MIC (Mtb)” value in the data set with Mtb is 0.3 µM (≈ 0.104 µg/mL).
In [1] (setting [11]), `COc1ccc2nc(C)cc(OCCCNc3ccc(C(C)C)cc3)c2c1` [8j, 4-Isopropyl-N-(3-((6-methoxy-2-methylquinolin-4-yl)oxy)propyl)aniline] yielded an MIC of 0.11 µM (≈ 0.0401 µg/mL).

The term CC50 denotes the concentration giving 50% cytotoxicity. Broadly, the Papp is the rate of passage across a membrane or cell layer, normalised by area and donor concentration. The low end stands for slow passage, the high end for fast passage.
